# Experiments:
# [1] = Binding affinity to Cyclophilin A/Avi-tagged KRAS G12C mutant (1 to 169 residues) (unknown origin) assessed as dissociation constant by SPR analysis; set-up: species or system Homo sapiens
# [2] = Inhibition of 6His-tagged KRAS G12V mutant(1 to 169 residues)/GST-tagged GMPPNP-bound BRAF RBD (155 to 229 reisudes)/Cyclophilin A (unknown origin) tri-complex protein-protein interaction incubated for 3 hrs by TR-FERT based disruption assay; set-up: species or system Homo sapiens
# [3] = Inhibition of 6His-tagged wildtype KRAS (1 to 169 residues)/GST-tagged GMPPNP-bound BRAF RBD (155 to 229 reisudes)/Cyclophilin A (unknown origin) tri-complex protein-protein interaction incubated for 3 hrs by TR-FERT based disruption assay; set-up: species or system Homo sapiens
# ASPC1 = assay: Cytotoxicity against human ASPC1 cells harboring KRAS G12D mutant cultured as 2D cells assessed as reduction in cell viability incubated for 120 hrs by CellTiter-Glo luminescence assay; format: functional, cell-based; details: ASPC1, 120 h
# [4] = Inhibition of 6His-tagged KRAS G61H mutant(1 to 169 residues)/GST-tagged GMPPNP-bound BRAF RBD (155 to 229 reisudes)/Cyclophilin A (unknown origin) tri-complex protein-protein interaction incubated for 3 hrs by TR-FERT based disruption assay; set-up: species or system Homo sapiens
# [5] = Binding affinity to Cyclophilin A/Avi-tagged KRAS G12D mutant (1 to 169 residues) (unknown origin) assessed as dissociation constant by SPR analysis; set-up: species or system Homo sapiens
# NCI-H358 = assay: Cytotoxicity against human NCI-H358 cells harboring KRAS G12C mutant cultured as 2D cells assessed as reduction in cell viability incubated for 120 hrs by CellTiter-Glo luminescence assay; format: functional, cell-based; details: NCI-H358, 120 h
# [6] = Inhibition of 6His-tagged wildtype HRAS (1 to 169 residues)/GST-tagged GMPPNP-bound BRAF RBD (155 to 229 reisudes)/Cyclophilin A (unknown origin) tri-complex protein-protein interaction incubated for 3 hrs by TR-FERT based disruption assay; set-up: species or system Homo sapiens
# NCI-H1975 = assay: Cytotoxicity against human NCI-H1975 cells harboring wildtype KRAS cultured as 2D cells assessed as reduction in cell viability incubated for 120 hrs by CellTiter-Glo luminescence assay; format: functional, cell-based; details: NCI-H1975, 120 h
# [7] = Inhibition of 6His-tagged wildtype NRAS (1 to 169 residues)/GST-tagged GMPPNP-bound BRAF RBD (155 to 229 reisudes)/Cyclophilin A (unknown origin) tri-complex protein-protein interaction incubated for 3 hrs by TR-FERT based disruption assay; set-up: species or system Homo sapiens
# [8] = Inhibition of 6His-tagged KRAS G12C mutant(1 to 169 residues)/GST-tagged GMPPNP-bound BRAF RBD (155 to 229 reisudes)/Cyclophilin A (unknown origin) tri-complex protein-protein interaction incubated for 3 hrs by TR-FERT based disruption assay; set-up: species or system Homo sapiens
# [9] = Inhibition of 6His-tagged KRAS G12R mutant(1 to 169 residues)/GST-tagged GMPPNP-bound BRAF RBD (155 to 229 reisudes)/Cyclophilin A (unknown origin) tri-complex protein-protein interaction incubated for 3 hrs by TR-FERT based disruption assay; set-up: species or system Homo sapiens
# [10] = Inhibition of 6His-tagged KRAS G12D mutant(1 to 169 residues)/GST-tagged GMPPNP-bound BRAF RBD (155 to 229 reisudes)/Cyclophilin A (unknown origin) tri-complex protein-protein interaction incubated for 3 hrs by TR-FERT based disruption assay; set-up: species or system Homo sapiens
# [11] = Binding affinity to Cyclophilin A/Avi-tagged KRAS G12V mutant (1 to 169 residues) (unknown origin) assessed as dissociation constant by SPR analysis; set-up: species or system Homo sapiens
# [12] = Inhibition of 6His-tagged NRAS G61K mutant(1 to 169 residues)/GST-tagged GMPPNP-bound BRAF RBD (155 to 229 reisudes)/Cyclophilin A (unknown origin) tri-complex protein-protein interaction incubated for 3 hrs by TR-FERT based disruption assay; set-up: species or system Homo sapiens
# [13] = biological target: Peptidyl-prolyl cis-trans isomerase A (Homo sapiens, UniProt P62937); assay: Binding affinity to Avi-tagged Cyclophilin A (unknown origin) assessed as dissociation constant by SPR analysis
# Sequence of Peptidyl-prolyl cis-trans isomerase A (P62937 whole entry): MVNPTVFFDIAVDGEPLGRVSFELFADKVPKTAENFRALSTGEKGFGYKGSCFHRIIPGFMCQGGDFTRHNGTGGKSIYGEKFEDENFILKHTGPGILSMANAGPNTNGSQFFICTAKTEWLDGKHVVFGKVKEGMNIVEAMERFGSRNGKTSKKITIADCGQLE
# CAPAN-1 = assay: Cytotoxicity against human CAPAN-1 cells harboring KRAS G12V mutant cultured as 2D cells assessed as reduction in cell viability incubated for 120 hrs by CellTiter-Glo luminescence assay; format: functional, cell-based; details: CAPAN-1, 120 h
# [14] = Inhibition of ERK1/2 phosphorylation in human NCI-H358 cells harboring KRAS G12C mutant incubated for 4 hrs by AlphaLISA assay; format: cell-based; details: NCI-H358, 4 h
# [15] = Metabolic stability in mouse liver microsomes assessed as half-life at 2 uM measured upto 60 mins in presence of NADPH by LC-MS/MS analysis; format: ADME, Microsome
# [16] = Lipophilicity, logD of compound at pH 7.4 by Agilent 1290 II uPLC analysis; format: physicochemical; details: buffer
# [17] = (§1) In vivo inhibition of MAPK signaling pathway in female BALB/c nude mouse xenografted with human NCI-H441 cells harboring wildtype KRAS/KRAS G12V mutant assessed as decrease in DUSP6 mRNA expression in tumor at 100 mg/kg, po administered as single dose and measured after 2 hrs by qPCR analysis relative to control; format: functional
# [18] = as §1, with “200” for “100”; format: functional
# [19] = Oral bioavailability in female BALB/c mouse at 10 mg/kg measured after 24 hrs by LC-MS/MS analysis; format: ADME, organism-based; details: in vivo
# [20] = Kinetic solubility of compound in PBS at pH 7.4 measured after 5 hrs by UV analysis; format: physicochemical; details: read-out: Kinetic_solubility
# [21] = Apparent permeability across apical to basolateral side in human Caco-2 cells at 5 uM incubated for 2 hrs by LC-MS/MS analysis; format: ADME, cell-based
# [22] = Efflux ratio of apparent permeability in human Caco-2 cells at 5 uM incubated for 2 hrs by LC-MS/MS analysis; format: ADME, cell-based
# [23] = Half-life in female BALB/c mouse at 1 mg/kg, iv measured after 24 hrs by LC-MS/MS analysis; format: ADME, organism-based; details: in vivo
# [24] = Inhibition of ERK1/2 phosphorylation in human CAPAN-1 cells harboring KRAS G12V mutant incubated for 4 hrs by AlphaLISA assay; format: cell-based; details: CAPAN-1, 4 h
# [25] = Inhibition of ERK1/2 phosphorylation in human ASPC1 cells harboring KRAS G12D mutant incubated for 4 hrs by AlphaLISA assay; format: cell-based; details: ASPC1, 4 h
# [26] = Clearance in female BALB/c mouse at 1 mg/kg, iv measured after 24 hrs by LC-MS/MS analysis; format: ADME, organism-based; details: in vivo
# A-375 = assay: Cytotoxicity against human A-375 cells assessed as reduction in cell viability incubated for 120 hrs by CellTiter-Glo luminescence assay; format: functional, cell-based; details: A-375, 120 h
structure (smiles),measurement,setting,value
CCn1c(-c2cccnc2[C@H](C)OC)c2c3cc(ccc31)-c1cccc(c1)C[C@H](NC(=O)[C@H](C(C)C)N(C)C(=O)[C@H]1CCN(C(C)=O)C1)C(=O)N1CCC[C@H](N1)C(=O)OCC(C)(C)C2,Kd,[1],2.05 µM
same,IC50,[2],4.4 µM
same,IC50,[3],5.1 µM
same,EC50,ASPC1,1.86 µM
same,IC50,[4],1.3 µM
same,Kd,[5],3.55 µM
same,EC50,NCI-H358,1.09 µM
same,IC50,[6],3.5 µM
same,EC50,NCI-H1975,1.14 µM
same,IC50,[7],3.2 µM
same,IC50,[8],1.6 µM
same,IC50,[9],8.4 µM
same,IC50,[10],12.9 µM
same,Kd,[11],5.83 µM
same,IC50,[12],3.5 µM
same,Kd,[13],0.897 µM
same,EC50,CAPAN-1,0.948 µM
CCn1c(-c2cccnc2[C@H](C)OC)c2c3cc(ccc31)-c1csc(n1)C[C@H](NC(=O)[C@H](C(C)C)N(C)C(=O)N1CC(OC)C1)C(=O)N1CCC[C@H](N1)C(=O)OCC(C)(C)C2,EC50,[14],0.005 µM
same,half-life at 2 µM,[15],19 min
same,logD,[16],4.8
same,inhibition in vivo at 100 mg/kg,[17],87%
same,IC50,[3],0.2 µM
same,IC50,ASPC1,0.076 µM
same,inhibition in vivo at 200 mg/kg,[18],94%
same,EC50,NCI-H358,0.007 µM
same,bioavailability,[19],17%
same,solubility kinetic at 5 h,[20],12 µM
same,"Papp A→B at 2 h, 5 µM",[21],0.6 ×10⁻⁶ cm/s
same,"efflux ratio at 2 h, 5 µM",[22],9.6
same,EC50,NCI-H1975,0.022 µM
same,IC50,[8],0.078 µM
same,half-life,[23],90 min
same,EC50,[24],0.003 µM
same,EC50,[25],0.061 µM
same,clearance,[26],33.3 mL/min/kg
same,IC50,[10],1.16 µM
same,EC50,A-375,> 10 µM
same,Kd,[13],0.283 µM
same,EC50,CAPAN-1,0.016 µM
